Measurements reported in the supplement of paper PMC11061612.

Tests used:
[1] = test system: BT-483 (Breast Carcinoma); test: combination Emax (second highest fraction inhibited in the dose matrix, 72 h); higher = more inhibition; extreme values may be limits of the assay
How it was run: (§1)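 After 24 hours at 37°C and 5% CO2 in 1536-well plates, cells in DMEM/F12 or RPMI plus 10% FBS received two-drug dose matrices for 72 hours. Viability came from CellTiter-Glo 2.0 luminescence and was scaled as inhibition, anchored at 0 by vehicle wells and at 1 by blank wells. Combination Emax is taken as the second-highest inhibition in the matrix, and Bliss excess as the observed combination effect less EA + EB − EA·EB, with EA and EB the single-agent effects.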

[2] = test system: CAPAN-2 (Pancreatic Carcinoma); test: as above
How it was run: as §1

Hs-445 (Non-Cancerous) = test: as above
How it was run: as §1

A498 (Kidney Carcinoma) = test: as above
How it was run: as §1

[3] = test system: HCC1954 (Breast Carcinoma); test: as above
How it was run: as §1

[4] = test system: A3-KAW (B-Cell Non-Hodgkin's Lymphoma); test: as above
How it was run: as §1

CAS-1 (Glioblastoma) = test: as above
How it was run: as §1

[5] = test system: BT-483 (Breast Carcinoma); test: Bliss excess, mean over the matrix (fraction); higher = more synergy
How it was run: as §1
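Throughout, for Bliss excess, mean over the matrix: after 72 h of two-drug dosing.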

SMILES: CN(C)CCCOc1ccc(-c2ccc3ncc4c(c3c2)n(C2CCOCC2)c(=O)n4C)cn1 [AZD0156] + O=C(c1cc(Cc2n[nH]c(=O)c3ccccc23)ccc1F)N1CCN(C(=O)C2CC2)CC1 [Olaparib] (first compound max 3 µM, partner max 3 µM)
- combination Emax [1]: 0.313
- combination Emax [2]: 0.291
- combination Emax (Hs-445 (Non-Cancerous)): 0.174
- combination Emax (A498 (Kidney Carcinoma)): 0.316
- combination Emax [3]: 0.218
- combination Emax [4]: 0.909
- combination Emax (CAS-1 (Glioblastoma)): 0.449
- Bliss excess [5]: -0.0118

SMILES: C=CCn1c(=O)c2cnc(Nc3ccc(N4CCN(C)CC4)cc3)nc2n1-c1cccc(C(C)(C)O)n1 [AZD1775] + C1CN(CCC1(C(=O)N[C@@H](CCO)C2=CC=C(C=C2)Cl)N)C3=NC=NC4=C3C=CN4 [Capivasertib] (first compound max 3 µM, partner max 3 µM)
- combination Emax [1]: 0.391
- combination Emax [2]: 0.513
- combination Emax (Hs-445 (Non-Cancerous)): 0.855
- combination Emax (A498 (Kidney Carcinoma)): 0.671
- combination Emax [3]: 0.914
- combination Emax [4]: 0.987
- combination Emax (CAS-1 (Glioblastoma)): 0.709
- Bliss excess [5]: -0.0416
